In US20240207265A1, “TREATMENT OF CNS DISEASES WITH sGC STIMULATORS” (Tisento Therapeutics Inc., priority 2021, published 2024):

System: sleep-stage specific pharmaco-EEG
Assay: Sleep-wake pharmaco-EEG in telemeter-implanted rats
Format: in vivo, rat
Description: Young adult male Sprague-Dawley (SD) rats (˜275-325 grams on arrival) from Envigo (Indianapolis, IN) were used in the study. Upon receipt, rats were assigned unique identification numbers and housed with 3 rats per cage in polycarbonate cages with micro-isolator filter tops. All rats were examined and weighed prior to initiation of the study to assure adequate health and suitability. During the course of the study, 12/12 light/dark cycles were maintained. The room temperature was maintained between […] and 23° C. with a relative humidity maintained around 50%. Chow and water were provided ad libitum for the duration of the study. Following surgery, rats were single housed. After a period of recovery (7-10 days), animals were transferred to an EEG recording room and placed over a DSI receiver for recordings.
• a. Vehicle A • i. Route: PO • ii. Volume: 10 ml/kg • iii. Formulation: Water • b. Compound I-14 at 3 mg/kg • i. Route: PO • ii. Volume: 10 ml/kg • iii. Formulation: 3 mg/kg in water • c. Compound I-14 at 10 mg/kg • i. Route: PO • ii. Volume: 10 ml/kg • iii. Formulation: 10 mg/kg in water • d. Compound I-14 at 30 mg/kg • i. Route: PO • ii. Volume: 10 ml/kg • iii. Formulation: 30 mg/kg in water
Briefly, animals were implanted with DSI Telemetry devices (F50-EET) in a 3 channel (lead pairs) configuration. Note the positive and negative lead placements for each location. Each of the EEG channels on the DSI transmitter functions as a differential input whereby the differential input measures the difference between the positive and negative leads. Frontal/Parietal (right): (+) 2 mm Anterior, 2 mm Lateral; (−) 4 mm Posterior, 2 mm Lateral; Frontal/Frontal (bihemispheric): (+) 2 mm Anterior, 2 mm Lateral (right); (−) 2 mm Anterior, 2 mm Lateral (left); and neck EMG.
This study followed a Monday and Thursday dosing/recording schedule, where Baseline EEG was recorded 2 hours and then rats received first dose of Compound I-14 at 0.3, 3 or 10 mg/kg or Vehicle A (all orally) between 7:50-8:00 AM and a second dose of the same after about 12 hours, and EEG continued 12 hours afterwards. • EEG Recordings began at 6 AM (at time lights turn on) • Dosing occurred at 7:50 am AM (1 hour 50 minutes after lights ON) • 2nd dosing (same compound) occurred at 7:50 PM (1 hour and 50 minutes after lights OFF) • EEG Recordings continued until 7:50 AM the following day (24 hours after 1st dose and 12 hours after 2nd dose).
Animals were tested in a cross-over design with at least 72-hour washout period between doses. On each testing day, animals received compound or vehicle orally just under 2 hours (7:50 AM) after lights on (6:00 AM). Data were recorded from 2 hours prior to dosing and recorded continuously for 24 hours post dose.
Raw EEG recordings were manually scored using Neuroscore software (Data Sciences International) to identify sleep stages: Active Wake, Quiet Wake, NREM and REM. Using NeuroScore (DSI), artifacts were removed offline from the data and sleep stages assigned manually for every 10 s epoch using EEG, EMG and Locomotor activity (LMA) by conventional methods as previously described (Ivarsson et al., 2005; Parmentier-Batteur et al., 2012; Leiser et al., 2014, 2015) using the fronto-parietal EEG, LMA and EMG: active wake (less regular, low-amplitude EEG with high EMG and LMA activity); quiet wake (less regular, low-amplitude EEG, with low EMG and no LMA activity); NREM (consisting of high-amplitude irregular waves with predominant delta (1-4 Hz), low EMG and no LMA); REM sleep (stable, low-amplitude waves dominated by theta (4-8 Hz) with near absent EMG and no LMA).
The sleep stage data were exported from a Neuroscore report template of sleep state time per each 15 min (2 hours pre-dose to 4 hours post-dose). The onset of the first sleep and first REM were also reported directly from a Neuroscore report template. […]

## Cc1cc(F)c(Cc2nc(-c3ncc(F)c(O)n3)cn3ccnc23)cc1F [Compound I-14, 5-fluoro-2-(8-(2,5-difluoro-4-methylbenzyl)imidazo[1,2-a]pyrazin-6-yl)pyrimidin-4-ol]
3 mg/kg PO
  EEG spectral power in QW: increased low gamma 0-180 minutes post dose
30 mg/kg PO
  EEG spectral power in QW: increased low gamma 0-240 and high gamma 0-180 minutes post dose
30 mg/kg PO, ˜0-300 minutes post dose
  EEG spectral power in NREM: decreased delta, theta, alpha and increased low and high gamma
High dose (30 mg/kg) PO
  REM and NREM in hypnograms vs vehicle (A) group: notable decrease in REM and NREM
  onset of NREM, REM and REM latency: delayed
Highest dose (30 mg/kg) PO
  Quiet Wake in hypnograms: increase in Quiet Wake
